# In publication PMC3781954 (Archives of biochemistry and biophysics, 2013):
# Experiments:
# Rabbit CYP2E1 [1] = target: T1, Rabbit CYP2E1 (Oryctolagus cuniculus, UniProt P08682); experiment: Inhibition of 4-nitrophenol oxidation to 4-nitrocatechol by reconstituted CYP2E1; details: for Inhibition Mechanism: most probable mechanism by DynaFit model discrimination, substrate 4-nitrophenol; for kcat2: turnover of the ESI complex, 95% confidence intervals in parentheses; for fold more potent than pyrazole: inhibition of CYP2E1 4-nitrophenol metabolism
# Rabbit CYP2E1 [2] = target: T1, Rabbit CYP2E1; experiment: Spectral binding studies; details: for fold increase in affinity (Kd) relative to pyrazole: catalytic site
# CYP2E1 [3] = target: CYP2E1 (Oryctolagus cuniculus, UniProt P08682); experiment: Spectral binding studies; set-up: species or system rabbit; details: rabbit, pH 7.4
# CYP2E1 [4] = details: positive cooperativity; ref [4], [6]; cited from earlier work
# T1 sequence (P08682 whole entry): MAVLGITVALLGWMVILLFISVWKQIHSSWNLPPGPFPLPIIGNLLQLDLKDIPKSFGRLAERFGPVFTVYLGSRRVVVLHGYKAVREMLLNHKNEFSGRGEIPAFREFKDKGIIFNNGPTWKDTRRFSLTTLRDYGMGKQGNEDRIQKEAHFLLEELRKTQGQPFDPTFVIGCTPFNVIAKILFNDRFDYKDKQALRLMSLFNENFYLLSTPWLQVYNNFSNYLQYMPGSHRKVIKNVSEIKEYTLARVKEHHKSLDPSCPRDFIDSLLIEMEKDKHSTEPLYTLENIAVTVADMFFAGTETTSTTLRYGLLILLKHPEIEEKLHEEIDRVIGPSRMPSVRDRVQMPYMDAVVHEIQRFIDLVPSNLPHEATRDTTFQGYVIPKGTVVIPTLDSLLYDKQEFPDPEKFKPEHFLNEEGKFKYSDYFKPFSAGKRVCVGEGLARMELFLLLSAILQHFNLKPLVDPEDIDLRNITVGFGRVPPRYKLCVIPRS
# CYP2E1 (Oryctolagus cuniculus, UniProt P08682), sequence (P08682 whole entry): as above
Inhibition Mechanism (Rabbit CYP2E1 [1]),kcat2 (Rabbit CYP2E1 [1]),Kd (Rabbit CYP2E1 [2]) [µM],SMILES,also measured
–,–,–,"Cc1cc(C)[nH]n1 [3,5-dimethylpyrazole]",inhibition of the 4-nitrophenol reaction (Rabbit CYP2E1 [1]; concentration as high as 250 µM (data not shown)): no inhibition; spectral shift upon binding (Rabbit CYP2E1 [2]; concentrations as high as 1000 µM): did not induce a spectral
"Mixed, coop. substrate",8.7 (7.0 to 10) min^−1,11,Cc1cc[nH]n1 [3-methylpyrazole],fold higher affinity for the free enzyme than the ES complex (Rabbit CYP2E1 [1]): two-fold; fold increase in affinity (Kd) relative to pyrazole (Rabbit CYP2E1 [2]; spectral binding): 2 fold; Kd (CYP2E1 [3]): 1.7 mM
"Mixed, coop. substrate",6.6 (2.3 to 9.6) min^−1,–,c1n[nH]c2c1CCCC2,fold more potent than pyrazole (Rabbit CYP2E1 [1]): 100 fold; fold increase in affinity (Kd) relative to pyrazole (Rabbit CYP2E1 [2]; spectral binding): 800 fold
–,–,–,CCOc1ccc2ccc(=O)oc2c1 [7-ethoxycoumarin],Hill coefficient (CYP2E1 [4]): 1.6
–,–,550,c1ccc2[nH]cnc2c1 [benzimidazole],–
Competitive,–,22,c1ccc(-c2cc[nH]n2)cc1 [3-phenylpyrazole],–
–,–,–,Cc1cccc(C)c1 [m-xylene],Hill coefficient (CYP2E1 [4]): 1.4

SMILES,Inhibition Mechanism (Rabbit CYP2E1 [1]),kcat2 (Rabbit CYP2E1 [1]),Kd (Rabbit CYP2E1 [2]) [µM],also measured
c1cn[nH]c1 [pyrazole],"Mixed, coop. substrate",–,–,–
c1ccc2[nH]ncc2c1 [indazole],"Mixed, coop. substrate",11 (9.0 to 13) min^−1,–,"fold more potent than pyrazole (Rabbit CYP2E1 [1]): more than 200 fold; fold increase in affinity relative to tetrahydroindazole (Rabbit CYP2E1 [2]; spectral binding, aromatization of the second ring): about five-fold"
